# Assay results as given in patent US20070010574A1, “Use of a trpm8-activating substance for the treatment of tumours” (priority 2002, published 2007).
# What was measured:
# HEK293 TRPM8 cells = experiment: tumor growth in hairless mice; assay type: in vivo; settings: male hairless mice, HEK293 TRPM8 cells subcutaneous or xenotransplanted in the prostate; 20 mg/kg daily intraperitoneal in DMSO, three weeks; vs untreated control animals
# Protocol: Human TRPM8 cDNA was subcloned in the expression vector pcDNA3.1 and subsequently stably transfected in HEK293 cells. […] To study the effect of menthol or icilin on tumor growth in vivo 2 million HEK293 TRPM8 cells were subcutaneously injected or xenotransplanted in the prostate in male hairless mice. The test groups in each case consisted of 10 animals. The control groups were untreated or treated only with DMSO. The animals were treated by daily intraperitoneal administration of 20 mg/kg body weight icilin or menthol, dissolved in DMSO, over a time interval of three weeks. The growth of the subcutaneously injected cells was measured twice weekly over the entire test duration. Immediately after completion of the trials the “xenotransplants” were resected, weighed and preserved.
# [1] = system: HEK293 cells transfected with TRPM8; experiment: soft agar assay, colony formation rate; assay type: cell-based; settings: TRPM8 transfected HEK293 cells vs wild type and empty vector cells; menthol 10, 100, and 100 μM in medium, substituted every fifth day; after three weeks
# Protocol: HEK293 cells were not transfected, transfected with TRPM8 or transfected with an empty vector. The cells were used in a soft agar assay (see reference Shappel et al., Cancer Research 61:497-503 (2001)). The cells highly individually plated out and immobilized in agar are caused to grow three-dimensionally and independently of the substrate in this way. The colony formation rate permits conclusions regarding the tumorigenicity of the cells to be drawn. 1000 cells were plated out in the 6-hole plate in 2 ml of medium containing soft agar and coated with 1 ml of medium (DMEM with 10% FCS, 2mM glutamine) after the agar congealed. Menthol dissolved in ethanol was added to the medium in end concentrations of 10, 100, and 100 μM and substituted every fifth day. The solvent alone was added as a control. After three weeks the number of colonies formed was determined under the microscope.
SMILES,tumor growth (HEK293 TRPM8 cells),number of colonies formed (colony formation rate) [1]
O=C1NC(c2cccc([N+](=O)[O-])c2)=CCN1c1ccccc1O [icilin],distinctly less tumor growth,–
CC1CCC(C(C)C)C(O)C1 (stereo not drawn) [menthol],distinctly less tumor growth,distincly less colony formation
